In patent US20220194936A1, “CRYSTALLINE FORMS OF N-(5-(5-((1R,2S)-2-FLUOROCYCLOPROPYL)-1,2,4-OXADIAZOL-3-YL)-2-METHYLPHENYL)IMIDAZO[1,2-A]PYRIDINE-3-CARBOXAMIDE” (Novartis AG, priority 2019, published 2022):

Columns and labels:
Format in all cases: physicochemical
[1] = Water activity evaluation - crystal modification (water/ethanol, 2 weeks, XRPD)
Experimental: 5-(5-((1R,2S)-2-fluorocyclopropyl)-1,2,4-oxadiazol-3-yl)-2-methylphenyl)imidazo[1,2-a]pyrindine-3-carboxamide Form A (10 mg) was placed in a vials containing various ratios of water and ethanol and allowed to equilibrate for 2 weeks. The samples were then examined by XRPD for physical stability determination. The results are given below in Table 5 which show conversion to Form HA and Form HB occurs depending on the water activity. […]

[2] = Evaluation of closed container thermal degradation (solid state, 1 week; HPLC, XRPD, color); details: tight container; for Bulk (XRPD): 50° C. and 80° C.
Experimental: 5-(5-((1R,2S)-2-fluorocyclopropyl)-1,2,4-oxadiazol-3-yl)-2-methylphenyl)imidazo[1,2-a]pyridine-3-carboxamide Form A (10 mg) was placed in a closed vial at 50° C. and 80° C. chamber for 1 week. The initial purity of (5-(5-((1R,2S)-2-fluorocyclopropyl)-1,2,4-oxadiazol-3-yl)-2-methylphenyl)imidazo[1,2-a]pyridine-3-carboxamide Form A was 99.7%.
(§1) The samples were examined by XRPD for physical stability determination and by HPLC for chemical stability determination indicated by the presence of degradation products (DP).
The HPLC method used is described in Example 13-1. The color (CL) of the samples was evaluated by visual observation.
(5-(5-((1R,2S)-2-fluorocyclopropyl)-1,2,4-oxadiazol-3-yl)-2-methylphenyl)imidazo[1,2-a]pyridine-3-carboxamide fumaric acid co-crystal (10 mg) was placed in a closed vial at 50° C. and 80° C. chamber for 1 week. The initial purity of (5-(5-((1R,2S)-2-fluorocyclopropyl)-1,2,4-oxadiazol-3-yl)-2-methylphenyl)imidazo[1,2-a]pyridine-3-carboxamide Fumaric acid co-crystal was 99.7%.
The HPLC method used is described in Example 19-1. The color (CL) of the samples was evaluated by visual observation.

[3] = Crystal modification after equilibration in water for 2 weeks (XRPD); details: after 2 weeks in water
Experimental: 5-(5-((1R,2S)-2-fluorocyclopropyl)-1,2,4-oxadiazol-3-yl)-2-methylphenyl)imidazo[1,2-a]pyrindine-3-carboxamide Form A (10 mg) was placed in a vial containing water for 2 weeks and the sample was then examined by XRPD for physical stability determination. It was observed that after 2 weeks in water 5-(5-((1R,2S)-2-fluorocyclopropyl)-1,2,4-oxadiazol-3-yl)-2-methylphenyl)imidazo[1,2-a]pyridine-3-carboxamide Form A converted to 5-(5-((1R,2S)-2-fluorocyclopropyl)-1,2,4-oxadiazol-3-yl)-2-methylphenyl)imidazo[1,2-a]pyridine-3-carboxamide Form HB.
5-(5-((1R,2S)-2-fluorocyclopropyl)-1,2,4-oxadiazol-3-yl)-2-methylphenyl)imidazo[1,2-a]pyrindine-3-carboxamide Fumaric acid co-crystal (10 mg) was placed in a vial containing water for 2 weeks and the sample was then examined by XRPD for physical stability determination. No change in XRPD was observed after 2 weeks in water.

[4] = Hygroscopicity by DVS at 25° C.
Experimental: The hygroscopicity of 5-(5-((1R,2S)-2-fluorocyclopropyl)-1,2,4-oxadiazol-3-yl)-2-methylphenyl)imidazo[1,2-a]pyridine-3-carboxamide Form A was evaluated by DVS at 25° C. and various RH values. The samples was examined by XRPD for physical stability determination.
The hygroscopicity of 5-(5-((1R,2S)-2-fluorocyclopropyl)-1,2,4-oxadiazol-3-yl)-2-methylphenyl)imidazo[1,2-a]pyridine-3-carboxamide fumaric acid co-crystal was evaluated by DVS at 25° C. and various RH values. The samples was examined by XRPD for physical stability determination.

[5] = Evaluation of humidity at elevated temperature (solid state, open vial, 75% RH, 1 week; HPLC, XRPD, color); details: for Bulk (XRPD): 50° C. and 80° C.
Experimental: (5-(5-((1R,2S)-2-fluorocyclopropyl)-1,2,4-oxadiazol-3-yl)-2-methylphenyl)imidazo[1,2-a]pyridine-3-carboxamide Form A (10 mg) was placed in an open vial in a 75% relative humidity (RH) chamber at 50° C. for one week and also in an open vial in a 75% relative humidity (RH) chamber at 80° C. for one week. The initial purity of (5-(5-((1R,2S)-2-fluorocyclopropyl)-1,2,4-oxadiazol-3-yl)-2-methylphenyl)imidazo[1,2-a]pyridine-3-carboxamide Form A was 99.7%.
as §1
The HPLC method used is […]
The color (CL) of the samples was evaluated by visual observation.
(5-(5-((1R,2S)-2-fluorocyclopropyl)-1,2,4-oxadiazol-3-yl)-2-methylphenyl)imidazo[1,2-a]pyridine-3-carboxamide fumaric acid co-crystal (10 mg) was placed in an open vial in a 75% relative humidity (RH) chamber at 50° C. for one week and also in an open vial in a 75% relative humidity (RH) chamber at 80° C. for one week. The initial purity of (5-(5-((1R,2S)-2-fluorocyclopropyl)-1,2,4-oxadiazol-3-yl)-2-methylphenyl)imidazo[1,2-a]pyridine-3-carboxamide fumaric acid co-crystal was 99.7%.
The samples were examined by XRPD for physical stability determination and by HPLC for chemical stability determination indicated by the presence of degradation products (DP). The HPLC method used is […]

[6] = Water activity 0.000, Water/ethanol (v/v) 0.000/1.000, 2 weeks
[7] = Water activity 0.099, Water/ethanol (v/v) 0.013/0.987, 2 weeks

Cc1ccc(-c2noc([C@H]3C[C@@H]3F)n2)cc1NC(=O)c1cnc2ccccn12 [Form A, N-(5-(5-((1R,2S)-2-fluorocyclopropyl)-1,2,4-oxadiazol-3-yl)-2-methylphenyl)imidazo[1,2-a]pyridine-3-carboxamide]
Modification (XRPD) [1, 6]: No change
Modification (XRPD) [1, 7]: No change
Bulk (XRPD) [2]: Bulk (XRPD): No change
CL (color) ([2]; 50° C.): No change
DP (%) degradation products, Bulk (HPLC) ([2]; 50° C.): 0.06%
CL (color) ([2]; 80° C.): No change
DP (%) degradation products, Bulk (HPLC) ([2]; 80° C.): 0.07%
Crystal modification by XRPD [3]: Form HB
Desorporption. Weight % change ([4]; 0 % RH): 0.0000%
Sorption Weight % change ([4]; 0 % RH): 0.0000%
Desorporption. Weight % change ([4]; 10 % RH): 0.0167%
Sorption Weight % change ([4]; 10 % RH): 0.0167%
Desorporption. Weight % change ([4]; 20 % RH): 0.0501%
Sorption Weight % change ([4]; 20 % RH): 0.0234%
Desorporption. Weight % change ([4]; 30 % RH): 0.0768%
Sorption Weight % change ([4]; 30 % RH): 0.0468%
Desorporption. Weight % change ([4]; 40 % RH): 0.0802%
Sorption Weight % change ([4]; 40 % RH): 0.0601%
Desorporption. Weight % change ([4]; 50 % RH): 0.0735%
Sorption Weight % change ([4]; 50 % RH): 0.0568%
Desorporption. Weight % change ([4]; 60 % RH): 0.0969%
Sorption Weight % change ([4]; 60 % RH): 0.0868%
Desorporption. Weight % change ([4]; 70 % RH): 0.1369%
Sorption Weight % change ([4]; 70 % RH): 0.1169%
Desorporption. Weight % change ([4]; 80 % RH): 0.1803%
Sorption Weight % change ([4]; 80 % RH): 0.1436%
Desorporption. Weight % change ([4]; 90 % RH): 0.2338%
Sorption Weight % change ([4]; 90 % RH): 0.2104%
CL (color) ([5]; 50° C.): No change
DP (%) degradation products, Bulk (HPLC) ([5]; 50° C.): 0.06%
Bulk (XRPD) [5]: Bulk (XRPD): No change
CL (color) ([5]; 80° C.): No change
DP (%) degradation products, Bulk (HPLC) ([5]; 80° C.): 0.06%

Cc1ccc(-c2noc([C@H]3C[C@@H]3F)n2)cc1NC(=O)c1cnc2ccccn12 [fumaric acid co-crystal, N-(5-(5-((1R,2S)-2-fluorocyclopropyl)-1,2,4-oxadiazol-3-yl)-2-methylphenyl)imidazo[1,2-a]pyridine-3-carboxamide fumaric acid co-crystal]
Modification (XRPD) [1, 6]: No change
Modification (XRPD) [1, 7]: No change
Modification (XRPD) ([1]; Water activity 0.205, Water/ethanol (v/v) 0.030/0.970, 2 weeks): No change
Modification (XRPD) ([1]; Water activity 0.298, Water/ethanol (v/v) 0.048/0.952, 2 weeks): No change
Modification (XRPD) ([1]; Water activity 0.398, Water/ethanol (v/v) 0.073/0.927, 2 weeks): No change
Modification (XRPD) ([1]; Water activity 0.502, Water/ethanol (v/v) 0.104/0.896, 2 weeks): No change
Modification (XRPD) ([1]; Water activity 0.605, Water/ethanol (v/v) 0.145/0.855, 2 weeks): No change
Modification (XRPD) ([1]; Water activity 0.700, Water/ethanol (v/v) 0.198/0.802, 2 weeks): No change
Modification (XRPD) ([1]; Water activity 0.802, Water/ethanol (v/v) 0.296/0.704, 2 weeks): No change
Modification (XRPD) ([1]; Water activity 0.900, Water/ethanol (v/v) 0.550/0.450, 2 weeks): No change
Modification (XRPD) ([1]; Water activity 1.000, Water/ethanol (v/v) 1.000/0.000, 2 weeks): No change
Bulk (XRPD) [2]: Bulk (XRPD): No change
CL (color) ([2]; 50° C.): No change
DP (%) degradation products, Bulk (HPLC) ([2]; 50° C.): 0.15%
CL (color) ([2]; 80° C.): No change
DP (%) degradation products, Bulk (HPLC) ([2]; 80° C.): 0.08%
Crystal modification by XRPD [3]: No change
Desorporption. Weight % change ([4]; 0 % RH): 0.0000%
Sorption Weight % change ([4]; 0 % RH): 0.0000%
Desorporption. Weight % change ([4]; 10 % RH): 0.0153%
Sorption Weight % change ([4]; 10 % RH): −0.0019%
Desorporption. Weight % change ([4]; 20 % RH): 0.0307%
Sorption Weight % change ([4]; 20 % RH): 0.0038%
Desorporption. Weight % change ([4]; 30 % RH): 0.0939%
Sorption Weight % change ([4]; 30 % RH): 0.0383%
Desorporption. Weight % change ([4]; 40 % RH): 0.0996%
Sorption Weight % change ([4]; 40 % RH): 0.0632%
Desorporption. Weight % change ([4]; 50 % RH): 0.1130%
Sorption Weight % change ([4]; 50 % RH): 0.0843%
Sorption Weight % change ([4]; 60 % RH): 0.0958%
Desorporption. Weight % change ([4]; 70 % RH): 0.1590%
Sorption Weight % change ([4]; 70 % RH): 0.1322%
Desorporption. Weight % change ([4]; 80 % RH): 0.1897%
Sorption Weight % change ([4]; 80 % RH): 0.1590%
Desorporption. Weight % change ([4]; 90 % RH): 0.1935%
Sorption Weight % change ([4]; 90 % RH): 0.2107%
CL (color) ([5]; 50° C.): No change
DP (%) degradation products, Bulk (HPLC) ([5]; 50° C.): 0.11%
Bulk (XRPD) [5]: Bulk (XRPD): No change
CL (color) ([5]; 80° C.): No change
DP (%) degradation products, Bulk (HPLC) ([5]; 80° C.): 0.09%
